Measurements reported in patent US4877881A, “Process of preparing pyrazoles, isoxazoles and analogs thereof having activity as 5-lipoxygenase inhibitors” (Warner-Lambert Company, priority 1988, dated 1989).

Tests used:
cyclooxygenase = target: T1, cyclooxygenase (Bos taurus, UniProt O62664); assay: Cyclooxygenase Enzyme Assay, bovine seminal vesicle (BSV), PGE2 formation; type: biochemical; conditions: bovine seminal vesicle powder; 100 μM arachidonic acid, 20 minutes
T1 construct: The assay consists of incubating 2 mg bovine seminal vesicle powder; from tissue; host or cells: bovine seminal vesicle powder
T1 sequence (O62664 25-600): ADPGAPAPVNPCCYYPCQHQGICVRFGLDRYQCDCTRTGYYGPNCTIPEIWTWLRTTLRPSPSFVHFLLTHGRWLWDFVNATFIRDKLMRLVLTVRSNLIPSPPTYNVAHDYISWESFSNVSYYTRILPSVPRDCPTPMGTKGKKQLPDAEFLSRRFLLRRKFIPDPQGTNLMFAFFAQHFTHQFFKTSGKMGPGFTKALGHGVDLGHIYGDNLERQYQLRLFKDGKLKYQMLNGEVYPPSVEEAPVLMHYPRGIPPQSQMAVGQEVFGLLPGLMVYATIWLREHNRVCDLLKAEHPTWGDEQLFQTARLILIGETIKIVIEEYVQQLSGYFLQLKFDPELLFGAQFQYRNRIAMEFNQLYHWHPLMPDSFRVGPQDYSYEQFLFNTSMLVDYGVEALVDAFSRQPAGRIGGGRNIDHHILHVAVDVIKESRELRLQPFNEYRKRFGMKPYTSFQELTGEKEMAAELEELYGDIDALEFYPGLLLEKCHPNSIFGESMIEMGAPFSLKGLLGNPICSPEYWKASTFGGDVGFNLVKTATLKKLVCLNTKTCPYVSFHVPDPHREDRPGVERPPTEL
Description: Cyclooxygenase Enzyme Assay
Additionally, inhibition of cyclooxygenase is considered a measure of relevance to the pathophysiology of the above noted diseases.
The assay consists of incubating 2 mg bovine seminal vesicle powder with 2 mM epinephrine, 2.5 mM reduced glutathione, 100 μM arachidonic acid, and the test agent for 20 minutes. The reaction mixture is acidified and extracted with ethyl acetate (3×1.0 ml) and the pooled extract is evaporated to dryness using a Speed Vac Concentrator or under a stream of nitrogen. The residue was dissolved in ethanol.

5-lipoxygenase = target: T2, 5-lipoxygenase (Rattus norvegicus, UniProt P12527); assay: ARBL Whole Cell 5-Lipoxygenase Assay in RBL-1 cells (LTB4 RIA); type: cell-based; conditions: RBL-1 intact cell 5-lipoxygenase; A23187 5 μM
T2 construct: ARBL/ARBC Whole Cell 5-Lipoxygenase and Cyclooxygenase Assays; endogenous in cells; host or cells: RBL-1 rat basophilic leukemia cells (American Type Culture Collection)
T2 sequence (P12527 1-673): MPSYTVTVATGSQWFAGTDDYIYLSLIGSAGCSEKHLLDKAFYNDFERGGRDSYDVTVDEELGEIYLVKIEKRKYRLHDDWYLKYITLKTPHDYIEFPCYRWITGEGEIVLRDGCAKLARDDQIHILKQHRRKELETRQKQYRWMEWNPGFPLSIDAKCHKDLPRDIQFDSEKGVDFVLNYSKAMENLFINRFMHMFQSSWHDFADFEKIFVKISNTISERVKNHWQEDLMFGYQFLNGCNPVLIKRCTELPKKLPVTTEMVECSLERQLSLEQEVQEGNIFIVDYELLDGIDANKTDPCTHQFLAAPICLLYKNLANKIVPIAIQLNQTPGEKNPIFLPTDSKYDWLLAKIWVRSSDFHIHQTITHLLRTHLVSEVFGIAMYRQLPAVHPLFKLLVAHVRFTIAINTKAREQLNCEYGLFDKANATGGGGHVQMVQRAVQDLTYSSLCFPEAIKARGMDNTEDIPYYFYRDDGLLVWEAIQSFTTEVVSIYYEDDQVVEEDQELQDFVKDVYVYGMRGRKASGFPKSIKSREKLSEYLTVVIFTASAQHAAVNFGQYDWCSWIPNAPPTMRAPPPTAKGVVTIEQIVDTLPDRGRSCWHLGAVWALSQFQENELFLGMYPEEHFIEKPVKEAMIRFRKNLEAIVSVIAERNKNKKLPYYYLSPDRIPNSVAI
Description: ARBL/ARBC Whole Cell 5-Lipoxygenase and Cyclooxygenase Assays
The rat basophilic leukemia cell line (RBL-1) was obtained from the American Type Culture Collection (Rockville, Md.).
Radioimmuno assay (RIA) kits of LTB4 and PGF2α were obtained from Amersham (Arlington Heights, Ill.) and Seragen (Boston, Mass.) respectively.
All tissue culture media were obtained from GIBO (Gran Island, N.Y.).
RBL-1 cells were grown in culture (suspension) in Eagle's minimum essential medium supplemented with 12% fetal bovine serum and 1:100 antibiotic-antimycotic mixture at 37° C. in an incubator supplied with air-5% carbon dioxide. Cells were harvested by centrifugation. They were washed with cold phosphate buffered saline pH 7.4 (PBS; NaCl, 7.1 g; Na2 HOP4, 1.15 g; KH2 PO4, 0.2 g; and KCl, 0.2 g/L). […] Calcium ionophore A23187 (5 μM) was added and cells were incubated for seven minutes at 37° C. The reaction was stopped by chilling the tubes in ice for ten minutes. Cells were separated by centrifugation and the supernatant was stored at -20°. Aliquots (100 μl) were analyzed for LTB4 and PGF2α using radioimmuno assay kits as provided by the supplier.

IC50 (cyclooxygenase) [µM]	IC50 (5-lipoxygenase) [nM]	SMILES
34	9500	Cc1cc(C=Cc2ccc(O)c(Cl)c2)n[nH]1 [Example 7, 3-[β-(4'-Hydroxy-3'-chlorophenyl)ethenyl]-5-methylpyrazole]
33	800	COc1cc(C=Cc2cc(C)n[nH]2)ccc1O [Example 5, 3-[β-(4'-Hydroxy-3'-methoxyphenyl)ethenyl]-5-methylpyrazole]
66	1600	COc1cc(C=Cc2cc(C=Cc3ccc(O)c(OC)c3)[nH]n2)ccc1O [Example 1, 3,5-Bis[β-(4'-hydroxy-3'-methoxyphenyl)ethenyl]pyrazole]
